From patent US7196103B2, “Indole derivatives as factor Xa inhibitors” (Sanofi-Aventis Deutschland GmbH, priority 2003, dated 2007)

molecular target: T1, human factor Xa (Homo sapiens, UniProt P00742); assay: Factor Xa assay (chromogenic, inhibition of factor Xa activity); format: biochemical; conditions: purified human factor Xa 0.5 nM, chromogenic substrate S-2765 140 μM, 25° C., pH 7.8; Ki calculated from IC50 corrected for substrate competition; read-out: Ki (inhibition constant) for the inhibition of factor Xa
T1 construct: human factor Xa; purchased Enzyme Research Laboratories, Inc; South Bend, Ind
Protocol: Purified enzymes were used in chromogenic assays.
The assay was performed by pre-incubating the compound of formula I plus enzyme for 10 min. Then the assay was initiated by adding substrate to obtain a final volume of 100 μl. The initial velocity of chromogenic substrate hydrolysis was measured by the change in absorbance at 405 nm using a Bio-tek Instruments kinetic plate reader (Ceres UV900HDi) at 25° C. during the linear portion of the time course (usually 1.5 min after addition of substrate).

T1 sequence (P00742 235-488 limits assumed): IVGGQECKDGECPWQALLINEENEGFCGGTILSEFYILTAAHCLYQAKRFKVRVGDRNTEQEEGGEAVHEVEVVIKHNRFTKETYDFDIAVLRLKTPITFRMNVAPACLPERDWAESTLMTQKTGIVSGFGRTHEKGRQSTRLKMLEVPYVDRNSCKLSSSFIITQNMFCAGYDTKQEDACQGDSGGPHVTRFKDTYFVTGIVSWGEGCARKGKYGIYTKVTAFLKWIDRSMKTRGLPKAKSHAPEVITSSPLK
T1 sequence (P00742 41-179 partner limits assumed): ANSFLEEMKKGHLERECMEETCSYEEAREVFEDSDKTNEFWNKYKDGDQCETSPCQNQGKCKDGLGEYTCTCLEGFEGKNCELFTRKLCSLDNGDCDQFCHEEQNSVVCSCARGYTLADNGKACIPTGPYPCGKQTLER

Question: With `CC(C)N1CCC(NC(=O)c2cc3cc(C(=O)N4CC(O)C4)ccc3n2Cc2cc(-c3ccc(Cl)s3)on2)CC1` [Example 1, 1-[5-(5-Chloro-thiophen-2-yl)-isoxazol-3-ylmethyl]-5-(3-hydroxy-azetidine-1-carbonyl)-1H-indole-2-carboxylic acid (1-isopropyl-piperidin-4-yl)-amide] as the compound, how does the Ki read?
Answer: 57 nM

Question: `CC(C)N1CCC(NC(=O)c2cc3cc(C(=O)N4CCCC4CO)ccc3n2Cc2cc(-c3ccc(Cl)s3)on2)CC1` (stereo not drawn) [Example 2, 1-[5-(5-Chloro-thiophen-2-yl)-isoxazol-3-ylmethyl]-5-(2-hydroxymethyl-pyrrolidine-1-carbonyl)-1H-indole-2-carboxylic acid (1-isopropyl-piperidin-4-yl)-amide] was tested. Which Ki did it give?
Answer: 113 nM

Question: `CC(C)N1CCC(NC(=O)c2cc3cc(C(=O)OCC4COC(=O)O4)ccc3n2Cc2cc(-c3ccc(Cl)s3)on2)CC1` (stereo not drawn) [Example 3, 1-[5-(5-Chloro-thiophen-2-yl)-isoxazol-3-ylmethyl]-2-(1-isopropyl-piperidin-4-ylcarbamoyl)-1H-indole-5-carboxylic acid 2-oxo-[1,3]dioxolan-4-ylmethyl ester] was tested. Which Ki did it give?
Answer: 14 nM

Question: For `CC(C)N1CCC(NC(=O)c2cc3cc(C(=O)N4CCCOCC4)ccc3n2CC(=O)Nc2ccc(Cl)cn2)CC1` [Example 4, 1-[(5-Chloro-pyridin-2-ylcarbamoyl)-methyl]-5-([1,4]oxazepane-4-carbonyl)-1H-indole-2-carboxylic acid (1-isopropyl-piperidin-4-yl)-amide], which Ki is on record?
Answer: 22 nM

Question: How did the Ki turn out when `COCCOC(=O)OC(C)OC(=O)c1ccc2c(c1)cc(C(=O)NC1CCN(C(C)C)CC1)n2CC(=O)Nc1ccc(Cl)cn1` (stereo not drawn) [Example 5, 1-[(5-Chloro-pyridin-2-ylcarbamoyl)-methyl]-2-(1-isopropyl-piperidin-4-ylcarbamoyl)-1H-indole-5-carboxylic acid 1-(2-methoxy-ethoxycarbonyloxy)-ethyl ester] was run?
Answer: 9 nM

Question: With `CC(C)N1CCC(NC(=O)c2cc3cc(C(=O)N4CCCOCC4)ccc3n2CC(=O)Nc2ccc(Cl)nc2)CC1` [Example 6, 1-[(6-Chloro-pyridin-3-ylcarbamoyl)-methyl]-5-([1,4]oxazepane-4-carbonyl)-1H-indole-2-carboxylic acid (1-isopropyl-piperidin-4-yl)-amide] as the compound, how does the Ki read?
Answer: 375 nM

Question: Which Ki does the source give for `CC(C)N1CCC(NC(=O)c2cc3c(C(=O)N4CCCOCC4)cccc3n2CC(=O)Nc2ccc(Cl)cn2)CC1` [Example 7, 1-[(5-Chloro-pyridin-2-ylcarbamoyl)-methyl]-4-([1,4]oxazepane-4-carbonyl)-1H-indole-2-carboxylic acid (1-isopropyl-piperidin-4-yl)-amide] here?
Answer: 3 nM

Question: How did the Ki turn out when `COc1cccc(Cn2c(C(=O)NC3CCN(C(C)C)CC3)cc3c(C(=O)N4CC(OC)C4)cccc32)c1` [Example 8, 4-(3-Methoxy-azetidine-1-carbonyl)-1-(3-methoxy-benzyl)-1H-indole-2-carboxylic acid (1-isopropyl-piperidin-4-yl)-amide] was run?
Answer: 133 nM

Question: Which Ki does the source give for `COc1cccc(Cn2c(C(=O)NC3CCN(C(C)C)CC3)cc3c(C(=O)N4CC(O)C4)cccc32)c1` [Example 9, 4-(3-Hydroxy-azetidine-1-carbonyl)-1-(3-methoxy-benzyl)-1H-indole-2-carboxylic acid (1-isopropyl-piperidin-4-yl)-amide] here?
Answer: 124 nM

Question: Which Ki does the source give for `CC(C)ONC(=O)c1ccc2c(c1)cc(C(=O)NC1CCN(C(C)C)CC1)n2Cc1cc(-c2ccc(Cl)s2)on1` [Example 10, 1-[5-(5-Chloro-thiophen-2-yl)-isoxazol-3-ylmethyl]-1H-indole-2,5-dicarboxylic acid 5-(isopropoxy-amide) 2-[(1-isopropyl-piperidin-4-yl)-amide]] here?
Answer: 24 nM

Question: `CC(C)N1CCC(NC(=O)c2cc3cc(C(=O)N4CC(O)C4)ccc3n2CC(=O)Nc2ccc(Cl)cn2)CC1` [Example 11, 1-[(5-Chloro-pyridin-2-ylcarbamoyl)-methyl]-5-(3-hydroxy-azetidine-1-carbonyl)-1H-indole-2-carboxylic acid (1-isopropyl-piperidin-4-yl)-amide] was tested. Which Ki did it give?
Answer: 8 nM

Question: With `CC(C)N1CCC(NC(=O)c2cc3c(C(=O)N4CC(O)C4)cccc3n2Cc2cc(-c3ccc(Cl)s3)on2)CC1` [Example 12, 1-[5-(5-Chloro-thiophen-2-yl)-isoxazol-3-ylmethyl]-4-(3-hydroxy-azetidine-1-carbonyl)-1H-indole-2-carboxylic acid (1-isopropyl-piperidin-4-yl)-amide] as the compound, how does the Ki read?
Answer: 14 nM

Question: How did the Ki turn out when `COCCOC(=O)OC(C)OC(=O)c1cccc2c1cc(C(=O)NC1CCN(C(C)C)CC1)n2CC(=O)Nc1ccc(Cl)cn1` (stereo not drawn) [Example 13, 1-[(5-Chloro-pyridin-2-ylcarbamoyl)-methyl]-2-(1-isopropyl-piperidin-4-ylcarbamoyl)-1H-indole-4-carboxylic acid 1-(2-methoxy-ethoxycarbonyloxy)-ethyl ester] was run?
Answer: 2 nM

Question: With `Cc1oc(=O)oc1COC(=O)c1cccc2c1cc(C(=O)NC1CCN(C(C)C)CC1)n2Cc1cc(-c2ccc(Cl)s2)on1` [Example 14, 1-[5-(5-Chloro-thiophen-2-yl)-isoxazol-3-ylmethyl]-2-(1-isopropyl-piperidin-4-ylcarbamoyl)-1H-indole-4-carboxylic acid 5-methyl-2-oxo-[1,3]dioxol-4-ylmethyl ester] as the compound, how does the Ki read?
Answer: 1 nM

Question: With `Cc1oc(=O)oc1COC(=O)c1ccc2c(c1)cc(C(=O)NC1CCN(C(C)C)CC1)n2Cc1cc(-c2ccc(Cl)s2)on1` [Example 15, 1-[5-(5-Chloro-thiophen-2-yl)-isoxazol-3-ylmethyl]-2-(1-isopropyl-piperidin-4-ylcarbamoyl)-1H-indole-5-carboxylic acid 5-methyl-2-oxo-[1,3]dioxol-4-ylmethyl ester] as the compound, how does the Ki read?
Answer: 11 nM
